Test results: patent publication US9204653B2, “5-fluoro pyrimidine derivatives” (DOW AGROSCIENCES LLC, priority 2008, dated 2015)
Where two headings read alike, the source gives them in different places.

Test system: Mycosphaerella graminicola; Anamorph: Septoria tritici; Bayer Code SEPTTR
Assay: Leaf blotch of wheat, foliar fungicide treatment, one day protectant (1DP) or three day curative (3DC)
Type: in vivo, Septoria tritici on wheat plants (variety Yuma)
Settings: Zymoseptoria tritici, rating of percent disease control
[1] = 24 h, one day protectant (1DP), read-out: SETTTR 1DP 25 ppm
[2] = 24 h, one day protectant (1DP), read-out: SEPTTR 1DP 100 ppm
[3] = 72 h, three day curative (3DC), read-out: SEPTTR 3DC 25 ppm
[4] = 72 h, three day curative (3DC), read-out: SEPTTR 3DC 100 ppm
[5] = 24 h, one day protectant, read-out: SETTTR 1DP 25 ppm
[6] = 24 h, one day protectant, read-out: SEPTTR 1DP 100 ppm
[7] = 72 h, three day curative, read-out: SEPTTR 3DC 25 ppm
[8] = 72 h, three day curative, read-out: SEPTTR 3DC 100 ppm

SMILES	pest or weed control at 25 ppm [1]	pest or weed control at 100 ppm [2]	pest or weed control at 25 ppm [3]	pest or weed control at 100 ppm [4]	pest or weed control at 25 ppm [5]	pest or weed control at 100 ppm [6]	pest or weed control at 25 ppm [7]	pest or weed control at 100 ppm [8]
CCOCNc1nc(OCc2cccc(C#N)c2)ncc1F [Compound 516]	76 to 100%	76 to 100%	76 to 100%	76 to 100%				
COC(=O)Oc1ncc(F)c(/N=C/N(C)C)n1 [Compound 517]	76 to 100%	76 to 100%	76 to 100%	76 to 100%				
CCCCN(C)/C=N/c1nc(OCc2ccc(F)cc2)ncc1F [Compound 518]	76 to 100%	76 to 100%	76 to 100%	76 to 100%				
COc1ccc(COc2ncc(F)c(NC(=O)Nc3ccccc3F)n2)cc1F [Compound 519]	0 to 25%	0 to 25%	0 to 25%	0 to 25%				
N#Cc1ccnc(COc2ncc(F)c(N)n2)c1 [Compound 522]	0 to 25%	26 to 50%	0 to 25%	0 to 25%				
COc1ccc(OC(=O)Oc2ncc(F)c(/N=C/N(C)C)n2)cc1 [Compound 523]	76 to 100%	76 to 100%	76 to 100%	76 to 100%				
O=[N+]([O-])c1ccccc1SNc1nc(OCc2cc(F)c(F)c(F)c2)ncc1F [Compound 525]	76 to 100%	76 to 100%	76 to 100%	76 to 100%				
O=[N+]([O-])c1ccccc1SNc1nc(OCc2ccc(F)c(C(F)(F)F)c2)ncc1F [Compound 527]	51 to 75%	76 to 100%	0 to 25%	0 to 25%				
CCCNC(=S)Nc1nc(OCc2cccs2)ncc1F [Compound 528]	76 to 100%	76 to 100%	0 to 25%	51 to 75%				
O=C(Nc1ccsc1)Nc1nc(OCCNc2ccccc2)ncc1F [Compound 529]	0 to 25%	0 to 25%	0 to 25%	0 to 25%				
CN1CCCC/C1=N\c1nc(OCc2cccs2)ncc1F [Compound 530]	76 to 100%	76 to 100%	51 to 75%	76 to 100%				
COc1cccc(COc2ncc(F)c(NC(=O)OCc3ccccc3)n2)c1 [Compound 531]	76 to 100%	76 to 100%	76 to 100%	76 to 100%				
COc1cccc(COc2ncc(F)c(N/N=C/c3ncc[nH]3)n2)c1 [Compound 532]	26 to 50%	51 to 75%	0 to 25%	26 to 50%				
CCC(C)/C(C)=N/Nc1nc(OCc2ccc(C)cc2)ncc1F (centres unmarked) [Compound 533]	51 to 75%	51 to 75%	0 to 25%	26 to 50%				
CCCNC(=O)Nc1nc(OCc2cccc(OC)c2)ncc1F [Compound 534]	0 to 25%	26 to 50%	0 to 25%	26 to 50%				
COc1cccc(COc2ncc(F)c(NC(=O)Nc3ccccc3F)n2)c1 [Compound 535]	0 to 25%	0 to 25%	0 to 25%	0 to 25%				
CCCNC(=O)Nc1nc(OCc2ccc(C)cc2)ncc1F [Compound 536]	0 to 25%	0 to 25%	26 to 50%	26 to 50%				
CCCCOc1ccc(COc2ncc(F)c(N)n2)cc1 [Compound 537]	76 to 100%	76 to 100%	76 to 100%	76 to 100%				
Fc1ccccc1NC(=S)Nc1nc(OCc2ccccc2)ncc1F [Compound 539]	76 to 100%	76 to 100%	0 to 25%	0 to 25%				
Nc1nc(OCc2ccc(Cl)cc2Cl)ncc1F [Compound 540]	76 to 100%	76 to 100%	76 to 100%	76 to 100%				
COc1ccccc1COc1ncc(F)c(/N=C/N2CCOCC2)n1 [Compound 541]	76 to 100%	76 to 100%	76 to 100%	76 to 100%				
CCOCc1cccc(COc2ncc(F)c(N)n2)c1 [Compound 543]	76 to 100%	76 to 100%	76 to 100%	76 to 100%				

SMILES	pest or weed control at 25 ppm [1]	pest or weed control at 100 ppm [2]	pest or weed control at 25 ppm [3]	pest or weed control at 100 ppm [4]	pest or weed control at 25 ppm [5]	pest or weed control at 100 ppm [6]	pest or weed control at 25 ppm [7]	pest or weed control at 100 ppm [8]
CC(Oc1ncc(F)c(N)n1)c1c(F)c(F)c(F)c(F)c1F (centres unmarked) [Compound 544]	0 to 25%	26 to 50%	0 to 25%	0 to 25%				
CN(C)CCOc1ncc(F)c(N)n1 [Compound 545]	0 to 25%	26 to 50%	0 to 25%	51 to 75%				
Nc1nc(COc2ccc(COc3ncc(F)c(N)n3)cc2)ncc1F [Compound 546]	51 to 75%	51 to 75%	51 to 75%	0 to 25%				
Nc1nc(OCc2ccc(F)c(Cl)c2)ncc1F [Compound 547]	76 to 100%	76 to 100%	76 to 100%	76 to 100%				
CC(C)NC(=O)Nc1nc(OCc2cccc(C#N)c2)ncc1F [Compound 548]	0 to 25%	0 to 25%	0 to 25%	0 to 25%				
Nc1nc(Oc2ccc(Cl)nc2)ncc1F [Compound 549]	26 to 50%	0 to 25%	0 to 25%	0 to 25%				
COc1cccc(COc2ncc(F)c(NC(C)=O)n2)c1 [Compound 550]					76 to 100%	76 to 100%	76 to 100%	76 to 100%
Nc1nc(Oc2ccccc2Cl)ncc1F [Compound 551]					0 to 25%	26 to 50%		
CCCNC(=S)Nc1nc(OCc2ccc(OC)c(F)c2)ncc1F [Compound 552]					0 to 25%	76 to 100%	0 to 25%	76 to 100%
CCOC(=O)C(=O)Nc1nc(OCc2ccc(C)cc2)ncc1F [Compound 553]					76 to 100%	76 to 100%	76 to 100%	76 to 100%
N#Cc1cccc(COc2ncc(F)c(NC(=O)Nc3ccccc3)n2)c1 [Compound 555]					0 to 25%	0 to 25%	0 to 25%	0 to 25%
COc1cccc(COc2ncc(F)c(N/N=C\c3ncc[nH]3)n2)c1 [Compound 557]					26 to 50%	0 to 25%	0 to 25%	0 to 25%
O=[N+]([O-])c1ccccc1SNc1nc(OCc2ccccc2)ncc1F [Compound 558]					76 to 100%	76 to 100%	26 to 50%	26 to 50%
CC#CCOc1ncc(F)c(NCO)n1 [Compound 559]					51 to 75%	76 to 100%	76 to 100%	76 to 100%
CC[Si](CC)(CC)Nc1nc(OCc2ccc(C)cc2)ncc1F [Compound 561]					76 to 100%	76 to 100%	76 to 100%	76 to 100%
COc1cccc(COc2ncc(F)c(NN3CCCCC3)n2)c1 [Compound 562]					0 to 25%	0 to 25%	0 to 25%	26 to 50%
Cc1cc(C)cc(COc2ncc(F)c(N)n2)c1 [Compound 564]					51 to 75%	76 to 100%	26 to 50%	76 to 100%
CCCNC(=O)Nc1nc(OCc2cccc(F)c2)ncc1F [Compound 566]					0 to 25%	0 to 25%	0 to 25%	0 to 25%
CCCNC(=S)Nc1nc(OCc2cccc(F)c2)ncc1F [Compound 568]					51 to 75%	76 to 100%	76 to 100%	76 to 100%
COc1ccccc1COc1ncc(F)c(NCO)n1 [Compound 571]					76 to 100%	76 to 100%	76 to 100%	76 to 100%
Fc1ccc(COc2ncc(F)c(NC(=S)NCc3ccccc3F)n2)cc1 [Compound 572]					26 to 50%	76 to 100%	26 to 50%	51 to 75%
